Results as given in article PMC10545747, “Development of cyclopeptide inhibitors of cGAS targeting protein-DNA interaction and phase separation” (Nature Communications, 2023).
“And” between values parts separate entries of the source, which are not always exact repeats. Equal values may be shown once. Square brackets hold non-standard residues; d marks the D form. Peptide text beside a SMILES is read from it.

Assays:
THP1-Lucia ISG cells = experiment: Luciferase reporter assay, dsDNA stimulation; format: cell-based, human; set-up: Type I interferon response, luciferase activity, Fig. 1c / luciferase activity, Fig. 2a: scale not given here
Source text: To screen direct cGAS inhibitors targeting protein-DNA interface from our developed focused library of macrocyclic peptides, we applied an RNA-based fluorescent biosensor for 2’,3’-cGAMP to detect cGAS activity in vitro (Supplementary Fig. 1a)[49]. The formation of 2’,3’-cGAMP from ATP and GTP was catalyzed by recombinant human cGAS enzyme (hcGAS-ΔN, residues 147–522, Supplementary Fig. 1b) in the presence of ISD (interferon stimulatory DNA, a 45-bp dsDNA), which was readily quantified by the RNA-based fluorescent biosensor and was further confirmed by ion exchange chromatography (Supplementary Fig. 1c). […] Subsequently, a total of 90 macrocyclic peptides were screened at a concentration of 20 μM (Fig. 1a and Supplementary Fig. 1e), and 4 hits (XQ2, XQ8, XQ19, and XQ46) were obtained for further testing at a cut-off of 40% inhibition (Supplementary Table 1). To evaluate the inhibitory effect of the hits against cGAS in cells, we employed real-time quantitative PCR (qPCR) to examine mRNA levels of IFNΒ1 in THP1 cells. The reported cGAS inhibitor RU.521 was used as the positive control, and the non-active peptide XQ28 in the screening assay was used as the negative control. […] The inhibition of cGAS by these hits was further confirmed in the reporter cell line THP1-Lucia ISG (Invivogen) that expresses secreted luciferase induced by an IRF3-inducible ISG54 promoter (Fig. 1c). The discrepancy between the inhibitory effect of the hits in protein and cellular assays may be attributed to their different cellular permeability.
THP1-Lucia ISG cells (Invivogen) were seeded into a 96-well plate and incubated with RU.521 (Invivogen) or XQ2 for the indicated time, and then transfected with dsDNA by lipofectamine 2000 (Invitrogen) or infected by HSV-1 with the indicated titer for 24 h. The supernatant was collected and 50 μL QUANTI-Luc Luciferase reagent (Invivogen) was added to 20 μL supernatants per well, and luciferase luminescence was detected by a microplate reader (BioTek Synergy H1) immediately.

[1] = tested on: primary bone marrow-derived macrophages (BMDMs) from C57BL/6 mice; experiment: qPCR of Ifnb1/Cxcl10 mRNA in BMDMs (ISD or HSV-1); format: cell-based, mouse
Protocol: The indicated cells were stimulated with either ISD (Sangon Biotech), HSV-1 (Provided by Dr. Zhengfan Jiang), HSV60mer (Sangon Biotech), SATE-cddA[70], 2’3’-cGAMP (Invivogen, Cat# tlrl-nacga23-1), ADU-S100 (MedChemExpress, Cat# HY-12885A) or Poly(I:C) (Invivogen, Cat# tlrl-pic) after XQ2 or XQ2B treatment. Total RNA was isolated from indicated cells that incubated with the drugs for indicated time or mice tissues by using NucleoZOL reagent (MACHEREY-NAGEL) according to the manufacturer’s instructions. The quantifications of mRNA levels were carried out by real-time PCR using a PerfectStart® Uni RT&qPCR Kit (TransGen Biotech) on the QuantStudio 5 qPCR machine (Applied Biosystems). Samples were carried out in triplicate and the target CT values were normalized to GAPDH CT values. Primers of qPCR used in this study can be found in Supplementary Table S2.
C57BL/6 6–8 weeks old wild type (WT) mice were purchased from Gempharmatech. C57BL/6 Trex1^+/- mice were purchased from Cyagen. Trex1^-/- mice were generated by further mating the male and female Trex1^+/- mice, and 8-week-old male Trex1^-/- mice were used in the experiment. Mice were housed in groups of up to 5 mice/cage at 18 °C − 24 °C ambient temperatures with 40–60% humidity. Mice were maintained on a 12 h light/ dark cycle 6 am to 6 pm. Food and water were available ad libitum. Femurs and tibias were removed from sex-matched mice of 6–8 weeks old, and the ends were clipped. Marrow was pushed from bones by using a syringe, and cell clumps were broken apart into cell particles by pipetting in PBS, and passed through a 70 μm cell strainer. Cells were resuspended in red blood cell lysis buffer (Solarbio) for 5 min after being centrifuged with 200 × g for 5 min, and were resuspended in cell culture media (DMEM) with an additional M-CSF (50 ng/ml) after centrifugation, and then were seeded into a 12-well plate. Half of the cell culture media was replaced with a fresh medium on the third day, and performed a complete media change on the fifth day. BMDMs were used for subsequent experiments after the seventh day. All the animal experiments in these studies were approved and overseen by the ethics committee of the Laboratory Animal Center of Peking University Shenzhen Graduate School in accordance with the Policy on the Care, Welfare, and Treatment of Laboratory Animals. The assigned approval or accreditation number is AP0020005.
Supplementary Fig. 2. […] (a, b) THP1 cells were
(c) L929, p = 0.0005 (Ifnb1),
BMDMs, p = 0.0001 (Ifnb1), p < 0.0001 (Cxcl10).
representative of three independent experiments in (a-g). (Data are presented as mean ± SD, n = 3 independent
Source data are provided as a Source Data file.

Hela cells = experiment: Immunofluorescence of IRF3 and p-IRF3 after HSV-1; format: cell-based, human
Protocol: Hela cells were treated as described for the indicated time and then fixed with 4% paraformaldehyde for 25 min, permeabilized with 0.25% Triton X-100 for 10 min, and blocked in 1% BSA for 1 h at 37 °C. Then, cells were incubated with indicated primary antibodies overnight at 4 °C, and followed by incubating with donkey anti-rabbit IgG Alexa Fluor 488-labeled secondary antibodies (Abcam, Cat# ab150073, 1:200) for 1 h at 37 °C. The nuclei were counterstained with DAPI (Sigma-Aldrich) before the images were acquired using a Nikon A1R+ confocal microscope.

[2] = tested on: Cy5-ISD (45-bp dsDNA ISD); experiment: Microscale thermophoresis (MST) with dsDNA; format: binding; conditions: Cy5-ISD 10 nM
Protocol: Excitation was optimized by varying the power to obtain fluorescence intensities above 200 counts. Data were analyzed by using the MO.Affinity Analysis software.

## CC(C)C[C@@H]1NC(=O)[C@H](CCCNC(=N)N)NC(=O)[C@H](C(C)C)NC(=O)[C@@H]2CCCN2C(=O)[C@@H](Cc2ccccc2)NC(=O)[C@H](CC(C)C)NC(=O)[C@H](CCCNC(=N)N)NC(=O)[C@H](C(C)C)NC(=O)[C@H](C)NC(=O)[C@@H](Cc2ccccc2)NC1=O [XQ2, Cyclo (LfAVRLfPVR)] (cyclo(L[dF]AVRL[dF]PVR))
THP1-Lucia ISG cells
  dsDNA-induced luciferase reporter signal: inhibited dsDNA-induced signaling in THP1 cells in a dose-dependent manner with an inhibitory activity comparable to that of RU.521
THP1-Lucia ISG cells; Mock (no dsDNA), compound 10 μM, replicate values
  luciferase activity, Fig. 2a: 0.1339 and 0.107 and 0.1281
THP1-Lucia ISG cells; Mock, 1.25 μM
  luciferase activity, Fig. 2a: 0.09057 and 0.08624 and 0.1133
THP1-Lucia ISG cells; Mock, 2.5 μM
  luciferase activity, Fig. 2a: 0.08177 and 0.0892 and 0.09714
THP1-Lucia ISG cells; Mock, 5 μM
  luciferase activity, Fig. 2a: 0.1148 and 0.09368 and 0.09512
THP1-Lucia ISG cells; dsDNA 24 h, 1.25 μM
  luciferase activity, Fig. 2a: 0.7893 and 0.9483 and 1.24
THP1-Lucia ISG cells; dsDNA 24 h, 2.5 μM
  luciferase activity, Fig. 2a: 1.035 and 1.02 and 0.8001
THP1-Lucia ISG cells; dsDNA 24 h, 5 μM
  luciferase activity, Fig. 2a: 0.8667 and 0.7097 and 0.78
THP1-Lucia ISG cells; dsDNA 24 h, compound 10 μM, 3 h pretreatment, replicate values
  luciferase activity, Fig. 2a: 0.4481 and 0.3329 and 0.2712
THP1-Lucia ISG cells; dsDNA 24 h, replicate values
  Type I interferon response, luciferase activity, Fig. 1c: 0.5575 and 0.4465 and 0.4391
[1]; 10 μM
  Ifnb1 and Cxcl10 expression induced by ISD and HSV-1: significantly inhibited the expression of Ifnb1 and its downstream gene Cxcl10
[1]; HSV-1+XQ2
  Cxcl10 mRNA (Fig. S2d): 143.811 and 140.79 and 131.38
  Ifnb1 mRNA (Fig. S2d): 30.4765 and 34.353 and 35.6259
[1]; ISD+XQ2
  Cxcl10 mRNA (Fig. S2c): 62.8779 and 59.0359 and 62.3708
  Ifnb1 mRNA (Fig. S2c): 709.298 and 846.919 and 741.167
[1]; XQ2 alone
  Cxcl10 mRNA (Fig. S2c): 1.406 and 1.738 and 1.597
  Cxcl10 mRNA (Fig. S2d): 1.406 and 1.738 and 1.597
  Ifnb1 mRNA (Fig. S2c): 0.9266 and 0.5519 and 1.072
  Ifnb1 mRNA (Fig. S2d): 0.9266 and 0.5519 and 1.072
Hela cells; HSV-1 6 h, 10 μM
  quantification of cells with nuclear IRF3, Fig. 2f: 5.1642 and 6.6102 and 7.0558
  quantification of cells with p-IRF3, Fig. 2g: 0.5674 and 0.8706 and 1.039
Hela cells; HSV-1, 10 μM
  nuclear translocation and phosphorylation of IRF-3, immunofluorescence: significantly inhibited the nuclear translocation and phosphorylation of IRF-3 triggered by HSV-1
[2]
  binding with ISD, MST: no binding of XQ2 with ISD
